Results: patent US9499550B2 (BRISTOL-MYERS SQUIBB COMPANY, priority 2012, dated 2016)
Read-outs that look alike come from different tables or passages of the source.

What was measured:
[1] = system: HCV genotype 1a (H77 strain) replicon in HUH-7 cells; test: HCV replicon luciferase reporter assay, genotype 1a; format: cell-based; settings: Hepatitis C virus, Huh-7, 72 h, 3 days incubation
How it was run: (§1)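 Replicon inhibition for both genotypes was measured as Renilla luciferase signal (EnduRen, 7.5 μM final, 2 h) after 3-day, 37° C exposure of replicon-bearing HUH-7 cells in 4% FCS DMEM, 0.5% DMSO. The 1b construct carries S1179I; the 1a H77 construct carries P1496L and S2204I. Twenty-point, 3-fold dilutions were fitted four-parametrically for EC50, and CC50 was taken from multiplexed Cell Titer-Blue.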

[2] = system: HCV genotype 1b (Con1) replicon in HUH-7 cells; test: HCV replicon luciferase reporter assay, genotype 1b; format: cell-based; settings: Hepatitis C virus, Huh-7, 72 h, 3 days incubation
How it was run: as §1

[3] = HCV genotype 1a replicon luciferase, read-out: LE_1a (EC50, range)
[4] = HCV genotype 1b replicon luciferase, read-out: LE_1b (EC50, range)

Compound	EC50 ([1]; HCV genotype 1a replicon luciferase assay, range class, read-out: LE_1a (EC50, range)) [nM]	EC50 ([1]; HCV genotype 1a replicon luciferase assay, read-out: LE_1a (EC50)) [nM]	EC50 ([2]; HCV genotype 1b replicon luciferase assay, range class, read-out: LE_1b (EC50, range)) [nM]	EC50 ([2]; HCV genotype 1b replicon luciferase assay, read-out: LE_1b (EC50)) [nM]	EC50 [1, 3] [nM]	EC50 [2, 4] [nM]
COc1cc2cc(-c3ccc(OC(C)C)cc3)nc(O[C@@H]3C[C@H]4C(=O)N[C@]5(C(=O)NS(=O)(=O)C6(C)CC6)C[C@H]5/C=C\CC[C@@H](C)C[C@@H](C)[C@H](NC(=O)OC(C)(C)C)C(=O)N4C3)c2cc1F [Compound 3184, tert-butyl ((2R,6S,7R,9R,13aS,14aR,16aS,Z)-2-((7-fluoro-3-(4-isopropoxyphenyl)-6-methoxyisoquinolin-1-yl)oxy)-7,9-dimethyl-14a-(((1-methylcyclopropyl)sulfonyl)carbamoyl)-5,16-dioxo-1,2,3,5,6,7,8,9,10,11,13a,14,14a,15,16,16a-hexadecahydrocyclopropa[e]pyrrolo[1,2-a][1,4]diazacyclopentadecin-6-yl)carbamate]	< 5.46	2.78	< 5.46	1.26	–	–
COc1cc2cc(-c3ccc(OC(C)C)cc3)nc(O[C@@H]3C[C@H]4C(=O)N[C@]5(C(=O)NS(=O)(=O)C6(C)CC6)C[C@H]5/C=C\CC[C@H](C)C[C@@H](C)[C@H](NC(=O)OC(C)(C)C(F)(F)F)C(=O)N4C3)c2cc1F [Compound 3185, 1,1,1-trifluoro-2-methylpropan-2-yl((2R,6S,7R,9S,13aS,14aR,16aS,Z)-2-((7-fluoro-3-(4-isopropoxyphenyl)-6-methoxyisoquinolin-1-yl)oxy)-7,9-dimethyl-14a-(((1-methylcyclopropyl)sulfonyl)carbamoyl)-5,16-dioxo-1,2,3,5,6,7,8,9,10,11,13a,14,14a,15,16,16a-hexadecahydrocyclopropa[e]pyrrolo[1,2-a][1,4]diazacyclopentadecin-6-yl)carbamate]	–	–	–	–	4.82 to 103	4.82 to 103
COc1cc2cc(-c3ccc(OC(C)C)cc3)nc(O[C@@H]3C[C@H]4C(=O)N[C@]5(C(=O)NS(=O)(=O)C6(C)CC6)C[C@H]5/C=C\CC[C@@H](C)C[C@@H](C)[C@H](NC(=O)OC(C)(C)C(F)(F)F)C(=O)N4C3)c2cc1F [Compound 3186, 1,1,1-trifluoro-2-methylpropan-2-yl((2R,6S,7R,9R,13aS,14aR,16aS,Z)-2-((7-fluoro-3-(4-isopropoxyphenyl)-6-methoxyisoquinolin-1-yl)oxy)-7,9-dimethyl-14a-(((1-methylcyclopropyl)sulfonyl)carbamoyl)-5,16-dioxo-1,2,3,5,6,7,8,9,10,11,13a,14,14a,15,16,16a-hexadecahydrocyclopropa[e]pyrrolo[1,2-a][1,4]diazacyclopentadecin-6-yl)carbamate]	–	–	–	–	< 5.46	< 5.46
COc1cc2cc(-c3ccc(OC(C)C)cc3)nc(O[C@@H]3C[C@H]4C(=O)N[C@]5(C(=O)NS(=O)(=O)C6CC6)C[C@H]5/C=C\CC[C@H](C)C[C@@H](C)[C@H](NC(=O)O[C@@H]5C[C@@H]6C[C@@H]6C5)C(=O)N4C3)c2cc1F [Compound 3187, (1R,3r,5S)-bicyclo[3.1.0]hexan-3-yl((2R,6S,7R,9S,13aS,14aR,16aS,Z)-14a-((cyclopropylsulfonyl)carbamoyl)-2-((7-fluoro-3-(4-isopropoxyphenyl)-6-methoxyisoquinolin-1-yl)oxy)-7,9-dimethyl-5,16-dioxo-1,2,3,5,6,7,8,9,10,11,13a,14,14a,15,16,16a-hexadecahydrocyclopropa[e]pyrrolo[1,2-a][1,4]diazacyclopentadecin-6-yl)carbamate]	–	–	–	–	< 5.46	< 5.46
COc1cc2cc(-c3ccc(OC(C)C)cc3)nc(O[C@@H]3C[C@H]4C(=O)N[C@]5(C(=O)NS(=O)(=O)C6CC6)C[C@H]5/C=C\CC[C@@H](C)C[C@@H](C)[C@H](NC(=O)O[C@@H]5C[C@@H]6C[C@@H]6C5)C(=O)N4C3)c2cc1F [Compound 3188, (1R,3r,5S)-bicyclo[3.1.0]hexan-3-yl((2R,6S,7R,9R,13aS,14aR,16aS,Z)-14a-((cyclopropylsulfonyl)carbamoyl)-2-((7-fluoro-3-(4-isopropoxyphenyl)-6-methoxyisoquinolin-1-yl)oxy)-7,9-dimethyl-5,16-dioxo-1,2,3,5,6,7,8,9,10,11,13a,14,14a,15,16,16a-hexadecahydrocyclopropa[e]pyrrolo[1,2-a][1,4]diazacyclopentadecin-6-yl)carbamate]	–	–	–	–	< 5.46	< 5.46
COc1cc2cc(-c3ccc(OC(C)C)cc3)nc(O[C@@H]3C[C@H]4C(=O)N[C@]5(C(=O)NS(=O)(=O)C6CC6)C[C@H]5/C=C\CC[C@H](C)C[C@@H](C)[C@H](NC(=O)OC(C)(C)C(F)(F)F)C(=O)N4C3)c2cc1F [Compound 3189, 1,1,1-trifluoro-2-methylpropan-2-yl((2R,6S,7R,9S,13aS,14aR,16aS,Z)-14a-((cyclopropylsulfonyl)carbamoyl)-2-((7-fluoro-3-(4-isopropoxyphenyl)-6-methoxyisoquinolin-1-yl)oxy)-7,9-dimethyl-5,16-dioxo-1,2,3,5,6,7,8,9,10,11,13a,14,14a,15,16,16a-hexadecahydrocyclopropa[e]pyrrolo[1,2-a][1,4]diazacyclopentadecin-6-yl)carbamate]	–	–	–	–	4.82 to 103	< 5.46
COc1cc2cc(-c3ccc(OC(C)C)cc3)nc(O[C@@H]3C[C@H]4C(=O)N[C@]5(C(=O)NS(=O)(=O)C6CC6)C[C@H]5/C=C\CC[C@@H](C)C[C@@H](C)[C@H](NC(=O)OC(C)(C)C(F)(F)F)C(=O)N4C3)c2cc1F [Compound 3190, 1,1,1-trifluoro-2-methylpropan-2-yl((2R,6S,7R,9R,13aS,14aR,16aS,Z)-14a-((cyclopropylsulfonyl)carbamoyl)-2-((7-fluoro-3-(4-isopropoxyphenyl)-6-methoxyisoquinolin-1-yl)oxy)-7,9-dimethyl-5,16-dioxo-1,2,3,5,6,7,8,9,10,11,13a,14,14a,15,16,16a-hexadecahydrocyclopropa[e]pyrrolo[1,2-a][1,4]diazacyclopentadecin-6-yl)carbamate]	–	–	–	–	< 5.46	< 5.46
COc1cc2cc(-c3ccc(OC(C)C)cc3)nc(O[C@@H]3C[C@H]4C(=O)N[C@]5(C(=O)NS(=O)(=O)C6(C)CC6)C[C@H]5/C=C\CC[C@H](C)C[C@@H](C)[C@H](NC(=O)O[C@@H]5C[C@@H]6C[C@@H]6C5)C(=O)N4C3)c2cc1F [Compound 3191, (1R,3r,5S)-bicyclo[3.1.0]hexan-3-yl((2R,6S,7R,9S,13aS,14aR,16aS,Z)-2-((7-fluoro-3-(4-isopropoxyphenyl)-6-methoxyisoquinolin-1-yl)oxy)-7,9-dimethyl-14a-(((1-methylcyclopropyl)sulfonyl)carbamoyl)-5,16-dioxo-1,2,3,5,6,7,8,9,10,11,13a,14,14a,15,16,16a-hexadecahydrocyclopropa[e]pyrrolo[1,2-a][1,4]diazacyclopentadecin-6-yl)carbamate]	–	–	–	–	4.82 to 103	< 5.46
COc1cc2cc(-c3ccc(OC(C)C)cc3)nc(O[C@@H]3C[C@H]4C(=O)N[C@]5(C(=O)NS(=O)(=O)C6(C)CC6)C[C@H]5/C=C\CC[C@@H](C)C[C@@H](C)[C@H](NC(=O)O[C@@H]5C[C@@H]6C[C@@H]6C5)C(=O)N4C3)c2cc1F [Compound 3192, (1R,3r,5S)-bicyclo[3.1.0]hexan-3-yl((2R,6S,7R,9R,13aS,14aR,16aS,Z)-2-((7-fluoro-3-(4-isopropoxyphenyl)-6-methoxyisoquinolin-1-yl)oxy)-7,9-dimethyl-14a-(((1-methylcyclopropyl)sulfonyl)carbamoyl)-5,16-dioxo-1,2,3,5,6,7,8,9,10,11,13a,14,14a,15,16,16a-hexadecahydrocyclopropa[e]pyrrolo[1,2-a][1,4]diazacyclopentadecin-6-yl)carbamate]	–	–	–	–	< 5.46	< 5.46
